Assay results: PubChem BioAssay AID977614 (Broad Institute, 2014)
Active and inactive are the calls of the source.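 The calls were made as follows: active = parasite count per well reduced by over 3 SD from the mean, with host cell number above 80% of untreated; inactive = the rest.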

Test system: L. donovani amastigotes in THP-1 macrophages, DAPI imaging, 72 h
Experiment: L. donovani intracellular amastigote growth inhibitors, imaging, THP-1 host macrophages, single concentration (AID 977614);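 also: signal is the parasite per host cell ratio from DAPI stained kinetoplasts and nuclei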

`C/C=C/c1ccc([C@@H]2[C@@H](CO)N[C@@H]2CN(CC(C)C)C(=O)c2ccccn2)cc1` was tested, and the AC50 was > 10 µM (inactive).

In the case of `Cc1noc(C)c1NC(=O)N(C)C[C@H]1OCc2cnnn2CCCC(=O)N([C@H](C)CO)C[C@@H]1C`, the AC50 was > 10 µM (inactive).

With `COCC(=O)N1C[C@@H]2[C@H](c3ccccc31)[C@@H](CO)N2Cc1cc(F)ccc1F` the AC50 was > 10 µM (inactive).

In the case of `COc1ccccc1CN1[C@@H](CO)[C@@H]2c3ccccc3N(C(=O)C3CCOCC3)C[C@@H]21`, the AC50 was > 10 µM (inactive).

With `CCC(=O)N1C[C@@H]2[C@H](c3ccccc31)[C@H](CO)N2Cc1ccc(F)cc1` the AC50 was > 10 µM (inactive).

For `CCCC#Cc1ccc([C@H]2[C@@H](CO)N[C@@H]2CN(C(C)=O)C2CCCC2)cc1`, the AC50 was > 10 µM (inactive).

With `O=C(Nc1cccc(F)c1)N1C[C@@H]2[C@H](c3ccccc31)[C@@H](CO)N2C(=O)Cc1ccccn1` the AC50 was > 10 µM (inactive).

With `C[C@H](CO)N1C[C@H](C)[C@@H](CN(C)Cc2ccccc2C(=O)O)OCc2cnnn2CCCC1=O` the AC50 was > 10 µM (inactive).

In the case of `CCN(C[C@@H]1N[C@@H](CO)[C@H]1c1ccc(-c2ccc(F)cc2)cc1)C(=O)CN(C)C`, the AC50 was > 10 µM (inactive).

For `C[C@H](CO)N1C[C@H](C)[C@@H](CN(C)S(=O)(=O)c2ccc(Oc3ccccc3)nc2)OCc2cnnn2CCCC1=O`, the AC50 was > 10 µM (inactive).

`O=C(Nc1ccc(F)cc1)N1C[C@H]2[C@@H](c3ccccc31)[C@@H](CO)N2Cc1ccccc1Cl` was tested, and the AC50 was > 10 µM (inactive).

For `O=S(=O)(c1ccccc1)N1[C@@H](CO)[C@@H]2c3ccccc3NC[C@@H]21`, the AC50 was > 10 µM (inactive).

In the case of `COc1ccccc1NC(=O)N1C[C@@H]2[C@H](c3ccccc31)[C@@H](CO)N2CC1CCOCC1`, the AC50 was > 10 µM (inactive).

In the case of `O=C(c1ccncc1)N1C[C@H]2[C@@H](c3ccccc31)[C@H](CO)N2C(=O)CN1CCOCC1`, the AC50 was > 10 µM (inactive).

For `C[C@@H]1CN([C@H](C)CO)C(=O)CCCn2nncc2CO[C@@H]1CN(C)C(=O)c1ccc(N2CCN(C)CC2)cc1`, the AC50 was > 10 µM (inactive).

With `O=C(c1ccccc1)N1C[C@@H]2[C@H](c3ccccc31)[C@H](CO)N2Cc1ccccn1` the AC50 was > 10 µM (inactive).

In the case of `COc1ccccc1C(=O)N1C[C@@H]2[C@H](c3ccccc31)[C@H](CO)N2CC1CCCC1`, the AC50 was > 10 µM (inactive).

With `O=C(C1CCCCC1)N1[C@@H](CO)[C@@H]2c3ccccc3N(S(=O)(=O)c3ccccc3)C[C@@H]21` the AC50 was > 10 µM (inactive).

With `CCN(C[C@@H]1[C@@H](c2ccccc2)[C@H](CO)N1S(C)(=O)=O)C(=O)C1CCCC1` the AC50 was > 10 µM (inactive).

`CCC(=O)N1[C@@H](CO)[C@@H]2c3ccccc3N(S(=O)(=O)c3ccc(F)cc3)C[C@@H]21` was tested, and the AC50 was > 10 µM (inactive).

`COCCN(C[C@H]1[C@H](c2ccccc2)[C@H](CO)N1C(C)=O)C(=O)c1cccnc1` was tested, and the AC50 was > 10 µM (inactive).

For `COc1cccc(NC(=O)N2[C@@H](CO)[C@H](c3ccccc3)[C@@H]2CNCC(C)C)c1`, the AC50 was > 10 µM (inactive).

In the case of `C[C@@H]1CN([C@@H](C)CO)C(=O)CCCn2nncc2CO[C@@H]1CN(C)C(=O)Oc1cccc2ccccc12`, the AC50 was > 10 µM (inactive).

For `O=C(C1CCC1)N1C[C@@H]2[C@H](c3ccccc31)[C@H](CO)N2C(=O)Nc1cccc(F)c1`, the AC50 was > 10 µM (inactive).

For `C[C@H](CO)N1C[C@H](C)[C@@H](CN(C)C(=O)Nc2ccc(-c3cccs3)cc2)OCc2cnnn2CCCC1=O`, the AC50 was > 10 µM (inactive).

In the case of `CC(C)CNC[C@@H]1[C@@H](c2ccccc2)[C@@H](CO)N1Cc1ccc(F)cc1`, the AC50 was > 10 µM (inactive).

For `CC(=O)N1[C@@H](CO)[C@H](c2ccccc2)[C@@H]1CN(CC1CCC1)C(=O)CN(C)C`, the AC50 was > 10 µM (inactive).

With `C/C=C/c1ccc([C@H]2[C@@H](CN(C)C(=O)CC3CC3)N(C(=O)C3CC3)[C@H]2CO)cc1` the AC50 was > 10 µM (inactive).

For `O=C(c1ccccc1F)N1C[C@@H]2[C@H](c3ccccc31)[C@H](CO)N2C(=O)Nc1ccccc1`, the AC50 was > 10 µM (inactive).

For `CN(C[C@@H]1N[C@H](CO)[C@@H]1c1ccc(-c2cccc(F)c2)cc1)C(=O)CC1CC1`, the AC50 was > 10 µM (inactive).
